The target of assay [1] is T1, IRAP (Homo sapiens, UniProt Q9UIQ6).
T1 construct: The screen was performed with the soluble truncated IRAP enzyme; made in house
Briefly: Thermal shift (TSA) IRAP assay. The assay is classed as binding. The conditions noted are these: screening hits at 30 µM, 1% DMSO. An excerpt: The Thermal shift assay (TSA) is a biophysical technique measuring protein thermal stability. The assay relies on a fluorescent dye that is quenched in an aqueous environment but fluoresces when de-solvated in non-polar environments, such as the hydrophobic pockets of proteins. The target protein is mixed with the dye and heated gradually until it becomes completely denatured; as it unfolds or melts, the dye binds to newly exposed hydrophobic regions of the protein, resulting in a significant increase in fluorescence emission detected by a PCR system. The melting temperature (Tm) is calculated from the protein melt curve, and changes in Tm (known as ΔTm) are correlated with changes in protein stability and ligand binding. […] For the TSA assay, vehicle (DMSO) or compound was dispensed into MicroAmp Endura optical qPCR plates at the desired volume using an Echo acoustic liquid handler. […] The plates were then centrifuged for 10 s at 1000 rpm and sealed with Clear PCR-compatible plate seals.

On the set-up of assay [2]: method as in ELF screening history. The conditions noted are these: ref ELF screening history, cited from earlier work; for Enzyme Active: number of ELF enzyme screens in which the compound was active; for Targets active: number of ELF screens in which the compound was active; for Enzyme Active %: share of ELF enzyme targets screened; for Targets Active %: share of all ELF targets screened.

The target in assay [3] is T1, IRAP. Briefly: Deselection fluorescence IRAP assay with 10 µM zinc. The assay is classed as biochemical. The conditions noted are these: 10 µM ZnSO4 in assay buffer; read-out: Fluorescence + Zn pIC50 (converted). On the procedure:
To prepare the assay buffer (50 mM Tris-HCl pH 7.4, 150 mM NaCl, 0.1 mM PMSF, 0.05% BSA) of the primary and orthogonal assays, 1 M Tris-HCl was prepared by dissolving 60.57 g Trizma-base (Mw 121.14 g/mol) (Sigma 93362-250G) in 500 mL MQ water, and the pH was adjusted to 7.4 using 4 M HCl. The solution was filtered with a 0.45 μm filter and stored at room temperature (RT). Then, 2 M NaCl stock was prepared by dissolving 29.22 g NaCl (Mw 58.44 g/mol) (Sigma S7653-250G) in 250 mL MQ water. The solution was filtered with a 0.45 μm filter and stored at RT. Next, 100 mM Phenylmethanesulfonylfluoride (PMSF) stock was prepared by dissolving 1 g PMSF (Mw 174.19 g/mol) (Sigma 78830-1G) in 57.4 mL isopropanol (Sigma I9516-500ML) and stored at 4 °C. A 10% Bovine Serum Albumin (BSA) stock solution was prepared by dissolving 2 g BSA (Mw 66.5 kDa) (Sigma A7030-50G), which was dissolved in 20 mL MQ water. The solution was filtered with a 0.45 μm filter, aliquoted, and stored at −20 °C. For the deselection assay buffer (50 mM Tris-HCl pH 7.4, 150 mM NaCl, 0.1 mM PMSF, 0.05% BSA, 10 μM ZnSO4), 1 mM ZnSO4 solution was prepared by dissolving 28.8 mg ZnSO4 (Mw 287.56 g/mol) (Sigma Z0251-100G) in 100 mL MQ water. The solution was filtered with a 0.45 μm filter and stored at RT. For the TSA assay buffer (50 mM Tris HCL, 150 mM NaCl, pH 7.4), stocks of 1 M Tris HCL and 2 M NaCl were prepared as described above.

The target in assay [4] is T1, IRAP. Briefly: Orthogonal absorbance IRAP assay (L-Leucine para-nitroanilide cleavage). The assay is classed as biochemical. The conditions noted are these: 1 mM L-Leucine p-Nitroanilide, 120 min RT; read-out: Absorbance pIC50 (converted). The source says: The primary biochemical assay was developed to measure the enzymatic activity of IRAP. […] To establish an orthogonal assay, an alternative L-Leucine para-nitroanilide substrate was used, which IRAP turns over to L-Leucine and para-nitroaniline and is measurable by absorbance at 405 nm (Supplementary Figure S2B).
To ensure biochemically sound, optimal, robust, and affordable assay conditions for large-scale screening, several factors need to be considered. These include the final concentration of substrates, based on the determined substrate Km value; the assay kinetics and reaction linearity; achieving a minimal, rate limiting protein concentration; identifying optimal buffer additives and concentrations; the choice of assay plate type; the final assay volume per well; the stability of reagents; the magnitude and variance of the signal; and the potency and rank order of reference compounds. For both primary fluorescence and orthogonal absorbance assays, non-binding 1536-well assay plates were used, and 0.05% BSA was included in the assay buffer to minimize the issues associated with protein sticking to plastics. The substrate Km values were determined in two separate experiments using two different batches of IRAP protein. For this, the IRAP progress curve was monitored every 5 min for 2 h using an Envision multimode plate reader (PerkinElmer, Waltham, MA, USA). […] To evaluate if using substrate concentrations close to the determined Km values results in sufficient dynamic range within the linear range of the enzymatic reaction, Z′ and S/B were calculated for multiple time points up to 2.5 h in the presence and absence of reference compounds in both assays. The primary fluorescence assay reached an optimal Z′-value after 1 h when using 37.5 μM substrate (Supplementary Figure S5). For the absorbance, 2 h was required for the enzyme reaction time; however, using ~0.4 mM substrate was associated with increased assay variation and a poor Z′ (Supplementary Figure S6).
The orthogonal assay was performed in a black non-binding 1536-well plate (Corning 3728) and sealed with universal lids (Corning 3098). First, 20 nL of test compounds (4 mM) or 100% DMSO was dispensed into the 1536-well assay plates using an Echo acoustic liquid handler (Beckman Coulter). Then, 4 μL of protein working solution (5 × 10^−4 mg/mL) was dispensed to the negative control (min effect) and compound wells (final well concentration 2.5 × 10^−4 mg/mL) using the Certus Flex liquid dispenser (Fritz Gyger AG) and 4 μL assay buffer to the positive control wells (max effect) using the FLEXdrop (PerkinElmer). Next, 4 μL of 2 mM substrate working solution was dispensed into all wells using the FLEXdrop (final well concentration 1 mM). The assay plates were then centrifuged at 187.5× g for 30 s, incubated in the dark at RT for 120 min, and finally read on an Envision plate reader (PerkinElmer) (absorbance at 405 nm, 10 flashes per second). During the dose–response curve analysis in the orthogonal assay, 80 nL of compound (range 2.00 × 10^−3 M–2.74 × 10^−6 M) or 100% DMSO was dispensed into the assay plates using an Echo acoustic liquid handler (Beckman Coulter) with final well concentration range of 20 μM–27.4 nM compound and 1% DMSO.

The target in assay [5] is T1, IRAP. The experiment in a line: Primary fluorescence IRAP assay (L-Leucine-7-amido-4-methylcoumarin cleavage). The assay is classed as biochemical. The conditions noted are these: for IC50: 37.5 µM L-Leucine-7-amido-4-methylcoumarin, 60 min RT, dose-response 20 µM-27.4 nM, read-out: Fluorescence IC50; for LipE: calculated from (pIC50Fluorescence − LogD). An excerpt:
The primary biochemical assay was developed to measure the enzymatic activity of IRAP.
To ensure biochemically sound, optimal, robust, and affordable assay conditions for large-scale screening, several factors need to be considered. […] For both primary fluorescence and orthogonal absorbance assays, non-binding 1536-well assay plates were used, and 0.05% BSA was included in the assay buffer to minimize the issues associated with protein sticking to plastics. The substrate Km values were determined in two separate experiments using two different batches of IRAP protein. For this, the IRAP progress curve was monitored every 5 min for 2 h using an Envision multimode plate reader (PerkinElmer, Waltham, MA, USA).
First, 10 nL of test compounds (4 mM) or 100% DMSO was dispensed into the 1536-well assay plates using an Echo acoustic liquid handler (Beckman Coulter, Brea, CA, USA). Then, 2 μL of protein working solution (5 × 10^−4 mg/mL) was dispensed to the negative control (min effect) and compound wells (final well concentration 2.5 × 10^−4 mg/mL) using a Certus Flex liquid dispenser (Fritz Gyger AG, Thun, Switzerland) and 2 μL assay buffer to the positive control wells (max effect) using a FLEXdrop (PerkinElmer, Waltham, MA, USA).
Figure S9. Reference compounds in Fluorescence IRAP assay with different end volumes in 1536-well format.
mg/ml) and 2 or 4 µL L -Leucine-7-amido-4-methylcoumarin (f.a.c.
Plates were measured on the Envision every 10 minutes for 140 minutes (data
shown up to 2 hours). %Effect was calculated using no protein as MAX effect (assay buffer was added instead of IRAP).

The values that follow come from paper PMC11012289, “The Discovery of New Inhibitors of Insulin-Regulated Aminopeptidase by a High-Throughput Screening of 400,000 Drug-like Compounds” (International Journal of Molecular Sciences, 2024).

A word on the ΔTm: it is the shift of the melting midpoint relative to a reference.

T1 sequence (Q9UIQ6 155-1025 limits assumed): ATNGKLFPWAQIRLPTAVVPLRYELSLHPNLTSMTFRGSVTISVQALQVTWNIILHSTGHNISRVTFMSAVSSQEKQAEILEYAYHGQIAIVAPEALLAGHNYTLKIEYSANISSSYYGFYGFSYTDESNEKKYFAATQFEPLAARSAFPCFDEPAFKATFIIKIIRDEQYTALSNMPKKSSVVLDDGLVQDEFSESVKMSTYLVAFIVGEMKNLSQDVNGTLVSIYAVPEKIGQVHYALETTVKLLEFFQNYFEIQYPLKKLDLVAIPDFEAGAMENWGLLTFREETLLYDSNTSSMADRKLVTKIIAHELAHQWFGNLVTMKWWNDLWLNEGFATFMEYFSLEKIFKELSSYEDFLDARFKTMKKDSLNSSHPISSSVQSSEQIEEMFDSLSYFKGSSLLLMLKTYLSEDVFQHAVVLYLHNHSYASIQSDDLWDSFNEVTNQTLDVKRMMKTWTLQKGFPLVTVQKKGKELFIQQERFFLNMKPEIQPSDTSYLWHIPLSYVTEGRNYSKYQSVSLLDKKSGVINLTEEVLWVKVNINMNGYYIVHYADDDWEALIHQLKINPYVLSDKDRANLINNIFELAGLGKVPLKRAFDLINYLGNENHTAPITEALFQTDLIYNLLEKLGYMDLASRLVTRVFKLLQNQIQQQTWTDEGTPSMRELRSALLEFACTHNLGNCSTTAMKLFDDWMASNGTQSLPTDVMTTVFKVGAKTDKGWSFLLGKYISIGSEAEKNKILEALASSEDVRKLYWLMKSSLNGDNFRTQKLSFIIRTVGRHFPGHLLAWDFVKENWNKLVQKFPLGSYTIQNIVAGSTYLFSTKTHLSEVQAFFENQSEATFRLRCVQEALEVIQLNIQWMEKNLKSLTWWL

On to `COc1ccc(S(=O)(=O)CCC(CCCc2ccccc2)C(=O)NO)cc1` (stereo not drawn) [QHL4], for which the ΔTm at 30 µM on IRAP [1] was found to be 4 °C. Besides, in assay [2], the “Enzyme Active” value is 3, the Targets active was 5, the “Enzyme Active %” value was 3.2% and the “Targets Active %” value is 3.4%. Also, the IC50 on IRAP [3] was 676 nM. Also, the IC50 on IRAP [4] was 2000 nM. Also, at IRAP [5], the IC50 was 710 nM and the LipE is reported as 2.51.

Consider `O=C(NO)C1(CS(=O)(=O)N2CCC(c3ccc(F)cc3Cl)C2)CCC1` (stereo not drawn) [QHL5], for which the ΔTm at 30 µM at IRAP [1] is 4.29 °C. In assay [2], the “Enzyme Active” value is 3, the Targets active is recorded as 4, the “Enzyme Active %” value is on record as 3.3% and the “Targets Active %” value is 2.7%. The IC50 at IRAP [3] was 1120 nM. At IRAP [4], the IC50 is 1950 nM. At IRAP [5], the IC50 was found to be 1200 nM and the LipE is 3.79.

For the molecule `CC(C)C(CS(=O)(=O)N1CCC(c2ccc(F)cc2Cl)C1)C(=O)NO` (stereo not drawn) [QHL6], the thermal shift (ΔTm) at 30 µM at IRAP [1] was 3.55 °C. In assay [2], the “Enzyme Active” value is 3, the Targets active is recorded as 5, the “Enzyme Active %” value was 3.2% and the “Targets Active %” value is listed as 3.4%. Further, on IRAP [3], the IC50 is 1230 nM. Further, the IC50 on IRAP [4] is 5750 nM. Moreover, on IRAP [5], the IC50 was 1260 nM and the LipE is listed as 3.57.

As for `Fc1ccc(F)c(Cn2ccc3ncc(N4CCNCC4)cc32)c1Cl` [QHL7], on IRAP [1], the thermal shift (ΔTm) at 30 µM was 0.3 °C. Moreover, in assay [2], the “Enzyme Active” value was 8, the Targets active was 9, the “Enzyme Active %” value is 8.6% and the “Targets Active %” value is 6.0%. The IC50 at IRAP [3] was 1380 nM. Further, the IC50 at IRAP [4] was more than 20000 nM. For the same molecule, at IRAP [5], the IC50 came out at 1290 nM and the LipE is on record as 2.10.

For `O=C(NO)C(CS(=O)(=O)N1CCC(c2ccc(F)cc2Cl)CC1)C1CCOCC1` (stereo not drawn) [QHL8], the thermal shift (ΔTm) at 30 µM on IRAP [1] worked out at 4.61 °C. Moreover, in assay [2], the “Enzyme Active” value is recorded as 4, the Targets active is 6, the “Enzyme Active %” value was 4.3% and the “Targets Active %” value is 4.0%. In addition, on IRAP [3], the IC50 was 1290 nM. In addition, on IRAP [4], the IC50 was 3550 nM. At IRAP [5], the IC50 is 1320 nM and the LipE is listed as 3.94.

As to `COc1cc(C(=O)N2CCc3n[nH]c(-c4cccs4)c3CC2)on1` [QHL9], the shift in melting temperature (ΔTm) at 30 µM at IRAP [1] turned out to be 0.15 °C. Also, in assay [2], the “Enzyme Active” value was 2, the Targets active is listed as 4, the “Enzyme Active %” value is 4.9% and the “Targets Active %” value is 5.3%. For the same molecule, the IC50 on IRAP [3] is 1580 nM. Also, the IC50 on IRAP [4] is more than 20000 nM. For the same molecule, on IRAP [5], the IC50 is 1510 nM and the LipE was 2.98.

In the case of `NCC[C@H]1CCCCN1C(=O)Cn1nc(-c2ccc(Cl)cc2)c2c1CCCC2` [QHL11], at IRAP [1], the ΔTm at 30 µM was 1.92 °C. In addition, in assay [2], the “Enzyme Active” value was 4, the Targets active is recorded as 5, the “Enzyme Active %” value was 4.2% and the “Targets Active %” value was 3.4%. The IC50 at IRAP [3] is 1700 nM. The IC50 at IRAP [4] is 3890 nM. Further, on IRAP [5], the IC50 was 1660 nM and the LipE is 2.57.

Take `Cc1cccc(Cl)c1CNc1ncnc2ncn(C)c12` [QHL12]: at IRAP [1], the ΔTm at 30 µM is -0.15 °C. For the same molecule, in assay [2], the “Enzyme Active” value is given as 3, the Targets active is listed as 3, the “Enzyme Active %” value is recorded as 3.6% and the “Targets Active %” value is 2.1%. Besides, the IC50 on IRAP [3] is 1950 nM. In addition, the IC50 on IRAP [4] was 13800 nM. Further, on IRAP [5], the IC50 worked out at 1910 nM and the LipE was 1.68.

Consider `COc1ccc([C@@H]2c3nnnn3CCN2CCCN(C)c2ccccc2)c(C)c1` [QHL13], for which the thermal shift (ΔTm) at 30 µM on IRAP [1] is -1.91 °C. Further, in assay [2], the “Enzyme Active” value is reported as 12, the Targets active is recorded as 19, the “Enzyme Active %” value is on record as 14.1% and the “Targets Active %” value is 13.2%. Also, at IRAP [3], the IC50 is 2000 nM. Further, at IRAP [4], the IC50 was 16200 nM. Besides, on IRAP [5], the IC50 worked out at 2140 nM and the LipE is listed as 2.39.

Turning to `O=C(COCc1ccccc1)N1CCc2n[nH]c(-c3cccs3)c2CC1` [QHL14], at IRAP [1], the ΔTm at 30 µM was determined as 0.15 °C. In addition, in assay [2], the “Enzyme Active” value was 3, the Targets active is on record as 5, the “Enzyme Active %” value was 7.3% and the “Targets Active %” value is listed as 6.6%. The IC50 on IRAP [3] is 2340 nM. Besides, the IC50 at IRAP [4] was more than 20000 nM. Also, at IRAP [5], the IC50 is 2240 nM and the LipE is 2.42.
